The subject of the experiment is fear-potentiated acoustic startle response in Fischer F344 rats. Briefly: Fear-potentiated startle response in rats. Type of experiment: in vivo, rat. The source says:
The compounds of formula I can be administered to the animal in order to assess their effects on emotional reactivity.
Signs of decreased emotional reactivity to acoustic stimuli have been discovered in an animal model of fear potentiated acoustic startle. Anxiolytic-like activity—as assessed by decreased acoustic startle reactivity—was observed one hour after treatment with a compound of the formula I compared to vehicle (PEG400) control treatment and to active treatment with diazepam given orally. […] In human medicine, increased acoustic startle reactivity has been observed in patients suffering from PTSD anxiety compared to healthy subjects (Exaggerated acoustic startle reflex in Gulf War veterans with posttraumatic stress disorder, Am. J. Psychiatry (1996), 153(1), 64-68).
In the fear-potentiated startle procedure in rats, a neutral stimulus such as light is repetitively paired with an aversive stimulus such as mild foot shock. When an animal is presented with loud acoustic stimuli, enhanced startle responses are elicited when the startle stimulus is preceded by the light (a classically conditioned increase in fear). Benzodiazepine anxiolytics attenuate the response enhancement. Startle response was recorded by using auditory startle chambers. […]

This passage reports startle response amplitude results from US9532985B2, “Tetrahydroquinoline derivatives for treating post-traumatic stress disorders” (ACTELION PHARMACEUTICALS LTD., priority 2007, dated 2017).

As to `CNC(=O)[C@@H](c1ccccc1)N1CCc2cc(OC)c(OC)cc2[C@@H]1CCc1ccc(C(F)(F)F)cc1.Cl` [Compound A, (R)-2-{(S)-6,7-dimethoxy-1-[2-(4-trifluoromethyl-phenyl)-ethyl]-3,4-dihydro-1H-isoquinolin-2-yl}-N-methyl-2-phenyl-acetamide hydrochloride], the startle response amplitude entry (oral 107 mg/kg, one hour after treatment, compared with vehicle (PEG400) group control 1) is “reduces in a significant manner the startle response amplitude”.
With `CN1C(=O)CN=C(c2ccccc2)c2cc(Cl)ccc21` [diazepam], the startle response amplitude result (oral 3 mg/kg, compared with vehicle group control 2) is “reduces in a significant manner the startle response amplitude”.
